Data reported in patent US11752125B2, “Anti-neuroinflammatory and protective compounds in Achillea fragrantissima” (THE STATE OF ISRAEL MINISTRY OF AGRICULTURE & RURAL …, priority 2013, dated 2023).

Experiments:
Type in all cases: cell-based, rat
IL-6 = IL-6 secretion from LPS-stimulated microglial cells (ELISA); conditions: LPS 100 ng/mL, 24 h
Description: 2. Plate microglial cells (3.5×10^4 cells/well) on a 24-well tissue culture plate, in DMEM containing 10% FBS, 2 mM glutamine, 100 U/ml penicillin and 100 micrograms/mL streptomycin;
Microglial cells were treated with different concentrations of TTF, followed by stimulation with LPS (100 ng/mL). After 24 h, conditioned media were collected and tested for cytokine levels by ELISA. Cell viability was determined using the crystal violet assay (FIG. 9C). Values represent the means±SEM (n=4 for each treatment).

MMP-9 = MMP-9 transcripts in LPS-activated microglial cells (real-time PCR); conditions: LPS 4.5 ng/mL; quantitative real-time PCR
Description: RNA was extracted by the RNeasy Plus Mini Kit (Qiagen, Hilden, Germany) according to the manufacturer's instructions. Genomic DNA was removed from the RNA samples by using 50 units of RNase-free DNaseI at 37° C. for 1 h. RNA ([…]) was converted to cDNA using the Thermo Scientific Verso cDNA kit (Thermo Fisher Scientific Inc) following the manufacturer's protocol. The cDNA was used for quantitative real-time PCR amplification with TaqMan chemistry (Applied Biosystems) using Rat MMP9, TNFα, IL1β, iNOS, COX2 pre-designed TaqMan Gene Expression Assay from Applied Biosystems (Rn00579162_m1, Rn00562055_m1, Rn00580432_m1, Rn00561646_m1, Rn01483828_m1, respectively). […] All results from three technical replicates were normalized relative to α-Tubulin (Rn01532518.g1) and GAPDH (Rn01775763.g1), respectively, and expressed as relative expression ratios calculated (relative quantity, RQ) using the comparative method and based on the data that were created by the ABI PRISM 7700 Sequence Detection System (using version 1.6 software).
Procedure 23. Measurement of IL-1Beta, TNFalpha, iNOS, COX-2 and MMP-9 Transcripts in LPS-Activated Microglial Cells by Quantitative Real-Time PCR Analysis. • 1. […]
Microglial cells were treated with the indicated concentrations of achillolide A, followed by stimulation with LPS (4.5 ng/mL). […] The levels of MMP-9 transcripts were measured by quantitative real-time PCR. […]

GDNF = GDNF transcript levels in primary astrocytes (real-time PCR); conditions: 24 h treatment
Description: 1. Produce a primary culture of rat brain glial cells according to the method described in “Protective effects of the essential oil of salvia fruticosa and its constituents on astrocytic susceptibility to hydrogen peroxide-induced cell death”. 2009. A. Elmann, S. Mordechay, M. Rindner, O. Larkov, M. Elkabetz, U. Ravid. Journal of agricultural and food chemistry. 57(15):6636-41; 2. Separate astrocytes from other cell types in the culture according to the method described in “Protective effects of the essential oil of salvia fruticosa and its constituents on astrocytic susceptibility to hydrogen peroxide-induced cell death”. 2009. A. Elmann, S. Mordechay, M. Rindner, O. Larkov, M. Elkabetz, U. Ravid. Journal of agricultural and food chemistry. 57(15):6636-41; 3. Plate astrocytes in 6-wells PDL-coated plastic plates at a density of 2×10^6 cells/well, in DMEM/F12 containing 5% FBS, 2 millimolar glutamine, 100 U/ml penicillin, and 100 micrograms/ml streptomycin. 4. Incubate the culture for 24 hr (37° C., 5% CO2); 5. Aspirate medium and add fresh medium to the cells. 6. […]
Astrocytes were treated with achillolide A for 24 h. […] GDNF transcripts were measured using quantitative real time PCR. The results of three technical replicates were normalized to […] and are expressed as relative quantities of GDNF transcripts. […]

| Structure (SMILES) | effect on LPS-elicited IL-6 secretion (IL-6) | effect on MMP-9 transcripts (MMP-9) | effect on GDNF transcript levels (GDNF) |
| --- | --- | --- | --- |
| COc1cc(-c2oc3cc(OC)c(OC)c(O)c3c(=O)c2O)ccc1O [TTF, 3,5,4′-trihydroxy-6,7,3′-trimethoxyflavone] | markedly inhibited | – | – |
| C=C1CCC2=C(CO)C(=O)O[C@H]2/C=C(\C)[C@H](OC(C)=O)CC1=O [achillolide A] | – | down-regulates | increases |
